# Reference: US9283277B2, “Methods and compositions for the treatment of obesity” (Children's Medical Center Corporation, priority 2008, dated 2016)
# Key:
# [1] = test system: LepRB signaling (LepRB, Jak2, Stat3); test: Leptin receptor signaling in LepRB-expressing 293 cells under tunicamycin-induced ER stress; type: cell-based, Human; settings: then leptin 100 ng/ml 45 minutes
# Text: The leptin receptor belongs to the interleukin 6 (IL-6) receptor family of class I cytokine receptors^30. […] Binding of leptin to LepRb initiates a conformational change that leads to trans-autophosphorylation and activation of LepRb-associated Jak2^31,32 Activated Jak2 then phosphorylates the tyrosine residues within the LepRb/Jak2 complex to mediate downstream signaling. […] To examine whether UPR might alter the leptin signaling, LepRB-expressing 293 cells were first exposed to tunicamycin (3 μg/ml) to activate ER stress for a period of 4 hours and then treated with leptin (100 ng/ml) for 45 minutes. […] Finally, as a downstream element, leptin-stimulated Stat3 activation was analyzed.
# insulin receptor (IR) = test: Insulin receptor activation in LepRB-expressing 293 cells after tunicamycin; type: cell-based, Human; settings: tunicamycin 3 μg/ml five hours, insulin 100 nM five minutes
# Protocol: To exclude the possibility that LepRB-expressing 293 cells become dysfunctional due to a possible toxicity generated by tunicamycin, we investigated the insulin receptor (IR) activation by stimulating the cells with insulin (100 nM) for five minutes after five-hour tunicamycin (3 μg/ml) treatment.
# LepRB = LepRB membrane translocation (immunofluorescence) and leptin-binding assay in 293 cells; type: cell-based, Human
# Protocol: Considering the fact that LepRB is folded in the ER, we investigated whether ER stress blocks leptin receptor translocation to the membrane from the ER and whether this could be a reason for the blockade of leptin signaling. We stimulated the 293 cells with tunicamycin for five hours (3 μg/ml) and analyzed leptin receptor levels in the plasma membrane by immunofluoresence staining. It was observed that LepRB folding is still preserved and its translocation to the membrane is not decreased in ER stress conditions. Next, we performed leptin-binding assays in DMSO and tunicamycin-treated cells to exclude the possibility of a defect in binding of leptin to LepRB.
# [2] = test system: hypothalamus of lean mice; test: Tunicamycin infusion to the third ventricle of lean mice; type: in vivo
# Text: Having shown that ER stress is increased in the hypothalamus of HFD-fed mice and causes leptin resistance in the cellular systems, we sought to investigate whether leptin action could also be blocked by directly inducing ER stress in brains of lean mice.
# Next, we investigated the expression patterns of leptin resistance markers such as neuropeptide Y (NPY) and agouti related peptide (AgRP) in the vehicle- and tunicamycin-infused mice. […] In addition, to exclude the possibility that tunicamycin infusion leads to a decay in mRNA degradation of NPY and AgRP due to a possible toxic effect, we analyzed mRNA levels of IR and insulin receptor substrate 1 (IRS1).
# To assess whether increased ER stress and activation of UPR signaling would create leptin resistance and block the leptin-stimulated Stat3 activation in the hypothalamus, leptin (1 mg/kg/day) was intraperitoneally administered 5½ hours after tunicamycin infusion. The experiment was ended by dissection of the hypothalami 30 minutes after leptin administration. […] In contrast, administration of tunicamycin to the third ventricle and creation of ER stress, in complete accordance with our data obtained from 293 cells, blocked activation of Stat3 in the hypothalamus (data not shown).
# [3] = test system: LepRB signaling (LepRB, Jak2, Stat3); test: Tunicamycin dose curve and time course in Ad-LacZ, Ad-XBP1s or Ad-ATF6n infected LepRb-expressing 293 cells; type: cell-based, Human
# Text: To determine whether exogenous expression of XBP1s and a consequent increase in ER folding capacity would enhance leptin receptor signaling, we generated an XBP1s-encoding adenovirus (Ad-XBP1s) and also a LacZ-expressing adenovirus (Ad-LacZ) as a control. Infection of mouse embryonic fibroblasts (MEFs) with Ad-XBP1s increased the protein level of XBP1s (data not shown). To test whether the expressed XBP1s was functional, we co-infected cells with Ad-XBP1s and a luciferase reporter gene-driven by an ERSE. […] ERDJ4 is a chaperone and involved in folding of ER proteins. […] After showing that Ad-XBP1s is functional and can increase ER folding capacity, we subsequently overexpressed the XBP1s in the LepRb-expressing 293 cells and performed two sets of experiments. In the first, we asked whether XBP1s overexpression could enhance the leptin-stimulated tyrosine phosphorylation of LepRb and increase the ability of the cells withstand to the ER stress-mediated blockade of LepRb activation. For this purpose we stimulated the 293 cells with increasing doses of tunicamycin (0.001, 0.01, 0.05, 0.1 and 1 μg/ml) for 5 hours and analyzed leptin-stimulated LepRb activation. In Ad-LacZ infected cells, LepRb activation was blocked at tunicamycin doses of 0.01 μg/ml and higher (data not shown). […]
# [4] = tunicamycin 3 μg/ml (or DMSO) 4 hours
substance,measurement,setting,value
tunicamycin,leptin-stimulated Jak2 tyrosine phosphorylation,[1]; tunicamycin 3 μg/ml 4 hours,reduced to an undetectable level
same,leptin-induced Stat3 phosphorylation (Tyr705),[1]; [4],totally abolished
same,leptin-stimulated LepRB tyrosine phosphorylation,[1]; [4],completely inhibited
same,insulin-stimulated IR tyrosine phosphorylation,insulin receptor (IR),did not change
same,LepRB translocation to the plasma membrane,"LepRB; 293 cells, tunicamycin 3 μg/ml five hours, immunofluorescence",not decreased
same,leptin binding to LepRB,LepRB; tunicamycin-treated vs DMSO-treated cells,significantly increased
same,Stat3 phosphorylation (activation) in the hypothalamus,"[2]; leptin 1 mg/kg IP 5½ hours after third ventricle tunicamycin or vehicle infusion, 30 minutes after leptin",blocked
same,POMC mRNA levels in hypothalamus,[2]; third ventricle infusion,did not show any significant difference
same,acute food intake,[2]; third ventricle infusion,significantly increased
same,hypothalamic mRNA levels of IR and IRS1,[2]; third ventricle infusion,does not lead to a change
same,mRNA levels of NPY and AgRP in hypothalamus,[2]; third ventricle infusion,significant increase
same,"mRNA levels of ER stress-responsive genes (XBP1s, CHOP, ERDJ4) in hypothalamus","[2]; third ventricle infusion, twelve hours after infusion",significantly upregulated
same,"time until leptin-stimulated LepRb, Jak2 activation and Stat3 tyrosine phosphorylation are blocked","[3]; Ad-LacZ infected 293 cells, tunicamycin 0.05 μg/ml",≤ 2 h
same,CHOP mRNA expression,"[3]; tunicamycin 0.01 and 0.05 μg/ml, five hours",upregulates
